One may read the IC50 as the concentration that gives 50% inhibition.

Assay [1] concerns the target T1, Recombinant STAT3 protein (STAT3(G127-I722)) (Homo sapiens, UniProt P40763).
T1 construct: STAT3(G127-I722)
Put plainly: STAT3 Fluorescence Polarization (FP) Assay. It counts as binding. Conditions: STAT3(G127-I722) 25 nM, probe 5-FAM-GpYLPQTV-NH2 2 nM, 45-minute incubation. An outline of the steps: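 Serially diluted compounds (1% DMSO) were mixed with 2 nM fluorescent phosphotyrosine peptide and 25 nM STAT3 construct G127-I722, pH 7.4, incubated 45 min at room temperature. IC50 values from fitted polarization curves are reported as categories A (≤100 nM), B, C, D (>10 μM).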
(In general: In fluorescence polarisation assays a small probe gives low polarisation when free and higher when bound to something large.)

The target in assay [2] is T2, Recombinant STAT6 protein (STAT6(W123-T658)) (Homo sapiens, UniProt P42226).
T2 construct: STAT6(W123-T658)
T2 sequence (P42226 123-658): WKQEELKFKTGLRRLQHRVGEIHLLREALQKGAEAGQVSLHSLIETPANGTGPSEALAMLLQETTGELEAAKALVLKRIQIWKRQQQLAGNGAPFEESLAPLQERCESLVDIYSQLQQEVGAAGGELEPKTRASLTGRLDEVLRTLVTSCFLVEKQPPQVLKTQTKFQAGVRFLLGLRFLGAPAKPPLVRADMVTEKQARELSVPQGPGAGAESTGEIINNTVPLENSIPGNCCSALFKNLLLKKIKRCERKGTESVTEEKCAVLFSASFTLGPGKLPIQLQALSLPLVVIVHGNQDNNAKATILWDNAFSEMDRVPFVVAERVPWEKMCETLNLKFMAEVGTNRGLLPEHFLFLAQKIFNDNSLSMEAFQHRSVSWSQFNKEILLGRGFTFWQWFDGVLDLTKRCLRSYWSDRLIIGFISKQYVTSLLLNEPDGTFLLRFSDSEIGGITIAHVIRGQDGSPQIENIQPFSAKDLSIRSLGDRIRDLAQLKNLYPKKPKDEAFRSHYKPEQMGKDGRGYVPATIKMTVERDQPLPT
Put plainly: STAT6 Fluorescence Polarization (FP) Assay. It counts as binding. Conditions: STAT6(W123-T658) 250 nM, probe 5-FAM-ApYKPFQDLI-NH2 2 nM, 45-minute incubation. In a few lines: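 Competitive displacement of a fluorescent phosphotyrosine peptide (2 nM) from recombinant STAT6 W123-T658 (250 nM), 45 min at room temperature in 10 mM HEPES pH 7.4, 50 mM NaCl, 2 mM DTT. mP fitted against log compound for IC50, grouped A (≤300 nM) to D (>30 μM).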

Where only a bound is given, the exact number is not on record here.

T1 sequence (P40763 127-722, species assumed): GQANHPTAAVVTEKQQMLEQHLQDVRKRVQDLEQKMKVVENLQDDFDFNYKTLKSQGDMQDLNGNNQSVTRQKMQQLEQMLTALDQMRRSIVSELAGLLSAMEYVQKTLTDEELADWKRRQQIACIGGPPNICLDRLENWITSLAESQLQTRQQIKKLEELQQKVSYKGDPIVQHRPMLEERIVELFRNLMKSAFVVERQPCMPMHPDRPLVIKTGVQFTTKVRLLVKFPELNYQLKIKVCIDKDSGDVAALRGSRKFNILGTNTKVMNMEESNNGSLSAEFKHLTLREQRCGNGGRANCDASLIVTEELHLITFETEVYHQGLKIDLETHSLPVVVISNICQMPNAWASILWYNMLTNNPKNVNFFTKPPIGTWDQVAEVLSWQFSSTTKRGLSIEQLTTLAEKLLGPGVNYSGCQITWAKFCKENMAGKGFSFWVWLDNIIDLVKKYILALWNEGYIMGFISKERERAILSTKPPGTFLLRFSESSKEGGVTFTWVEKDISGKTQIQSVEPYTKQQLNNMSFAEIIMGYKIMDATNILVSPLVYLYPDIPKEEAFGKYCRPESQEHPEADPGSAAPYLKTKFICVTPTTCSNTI

`O=C(N[C@H]1C[C@@H]2C[C@@H]2C[C@H]2CC[C@@H](C(=O)N3CC(c4cnccn4)C3)N2C1=O)c1cc2cc(C(F)(F)P(=O)(O)O)ccc2s1` [Compound 50, (difluoro(2-(((3S,6S,7aS,8aR,9aR)-5-oxo-3-(3-(pyrazin-2-yl)azetidine-1-carbonyl)decahydro-1H-cyclopropa[d]pyrrolo[1,2-a]azocin-6-yl)carbamoyl)benzo[b]thiophen-5-yl)methyl)phosphonic acid]: the IC50 in assay [1] is less than 100 nM; in assay [2], 3000 to 30000 nM.
For `O=C(N[C@H]1C[C@@H]2C[C@@H]2C[C@H]2CC[C@@H](C(=O)N[C@@H]3CCN(c4cccnn4)C3)N2C1=O)c1cc2cc(C(F)(F)P(=O)(O)O)ccc2s1` [Compound 51, (difluoro(2-(((3S,6S,7aS,8aR,9aR)-5-oxo-3-(((R)-1-(pyridazin-3-yl)pyrrolidin-3-yl)carbamoyl)decahydro-1H-cyclopropa[d]pyrrolo[1,2-a]azocin-6-yl)carbamoyl)benzo[b]thiophen-5-yl)methyl)phosphonic acid] the same measures were less than 100 nM and 300 to 3000 nM.
For `O=C(N[C@H]1C[C@@H]2C[C@@H]2C[C@H]2CC[C@@H](C(=O)N[C@@H]3CCN(c4ccccc4)C3)N2C1=O)c1cc2cc(C(F)(F)P(=O)(O)O)ccc2s1` [Compound 52, (difluoro(2-(((3S,6S,7aS,8aR,9aR)-5-oxo-3-(((R)-1-phenylpyrrolidin-3-yl)carbamoyl)decahydro-1H-cyclopropa[d]pyrrolo[1,2-a]azocin-6-yl)carbamoyl)benzo[b]thiophen-5-yl)methyl)phosphonic acid] the same measures were 100 to 1000 nM and 300 to 3000 nM.
Consider `O=C(N[C@H]1C[C@@H]2C[C@@H]2C[C@H]2CC[C@@H](C(=O)NC3CN([C@@H]4CCOC4)C3)N2C1=O)c1cc2cc(C(F)(F)P(=O)(O)O)ccc2s1` [Compound 53, (difluoro(2-(((3S,6S,7aS,8aR,9aR)-5-oxo-3-((1-((R)-tetrahydrofuran-3-yl)azetidin-3-yl)carbamoyl)decahydro-1H-cyclopropa[d]pyrrolo[1,2-a]azocin-6-yl)carbamoyl)benzo[b]thiophen-5-yl)methyl)phosphonic acid], for which the results for the IC50 in assay [1] and in assay [2] were 100 to 1000 nM and 3000 to 30000 nM, respectively.
The corresponding values for `O=C(N[C@H]1C[C@H]2C[C@H]2C[C@H]2CC[C@@H](C(=O)N3CC(c4c[nH]cn4)C3)N2C1=O)c1cc2cc(C(F)(F)P(=O)(O)O)ccc2s1` [Compound 54, ((2-(((3S,6S,7aR,8aS,9aR)-3-(3-(1H-imidazol-4-yl)azetidine-1-carbonyl)-5-oxodecahydro-1H-cyclopropa[d]pyrrolo[1,2-a]azocin-6-yl)carbamoyl)benzo[b]thiophen-5-yl)difluoromethyl)phosphonic acid] are less than 100 nM and 300 to 3000 nM.
Regarding `Cc1ncccc1C1CN(C(=O)[C@@H]2CC[C@@H]3C[C@@H]4C[C@@H]4C[C@H](NC(=O)c4cc5cc(C(F)(F)P(=O)(O)O)ccc5s4)C(=O)N32)C1` [Compound 55, (difluoro(2-(((3S,6S,7aR,8aS,9aR)-3-(3-(2-methylpyridin-3-yl)azetidine-1-carbonyl)-5-oxodecahydro-1H-cyclopropa[d]pyrrolo[1,2-a]azocin-6-yl)carbamoyl)benzo[b]thiophen-5-yl)methyl)phosphonic acid], the IC50 is less than 100 nM in assay [1] and 3000 to 30000 nM in assay [2].
For `Cc1ccncc1C1CN(C(=O)[C@@H]2CC[C@@H]3C[C@@H]4C[C@@H]4C[C@H](NC(=O)c4cc5cc(C(F)(F)P(=O)(O)O)ccc5s4)C(=O)N32)C1` [Compound 56, (difluoro(2-(((3S,6S,7aR,8aS,9aR)-3-(3-(4-methylpyridin-3-yl)azetidine-1-carbonyl)-5-oxodecahydro-1H-cyclopropa[d]pyrrolo[1,2-a]azocin-6-yl)carbamoyl)benzo[b]thiophen-5-yl)methyl)phosphonic acid] the same measures were less than 100 nM and 300 to 3000 nM.
For `O=C(N[C@H]1C[C@@H]2C[C@@H]2C[C@H]2CC[C@@H](C(=O)NC3CN([C@H]4CCOC4)C3)N2C1=O)c1cc2cc(C(F)(F)P(=O)(O)O)ccc2s1` [Compound 57, (difluoro(2-(((3S,6S,7aS,8aR,9aR)-5-oxo-3-((1-((S)-tetrahydrofuran-3-yl)azetidin-3-yl)carbamoyl)decahydro-1H-cyclopropa[d]pyrrolo[1,2-a]azocin-6-yl)carbamoyl)benzo[b]thiophen-5-yl)methyl)phosphonic acid] the same measures were 100 to 1000 nM and 3000 to 30000 nM.
The corresponding values for `Cc1cccnc1C1CN(C(=O)[C@@H]2CC[C@@H]3C[C@@H]4C[C@@H]4C[C@H](NC(=O)c4cc5cc(C(F)(F)P(=O)(O)O)ccc5s4)C(=O)N32)C1` [Compound 58, (difluoro(2-(((3S,6S,7aR,8aS,9aR)-3-(3-(3-methylpyridin-2-yl)azetidine-1-carbonyl)-5-oxodecahydro-1H-cyclopropa[d]pyrrolo[1,2-a]azocin-6-yl)carbamoyl)benzo[b]thiophen-5-yl)methyl)phosphonic acid] are less than 100 nM and 3000 to 30000 nM.
For the molecule `O=C(N[C@H]1C[C@H]2C[C@H]2C[C@H]2CC[C@@H](C(=O)N3CC(n4ccnc4)C3)N2C1=O)c1ccc2ccc(C(F)(F)P(=O)(O)O)cc2c1` [Compound 59, ((7-(((3S,6S,7aR,8aS,9aR)-3-(3-(1H-imidazol-1-yl)azetidine-1-carbonyl)-5-oxodecahydro-1H-cyclopropa[d]pyrrolo[1,2-a]azocin-6-yl)carbamoyl)naphthalen-2-yl)difluoromethyl)phosphonic acid], the IC50 in assay [1] was less than 100 nM; in assay [2], 3000 to 30000 nM.
For `Cc1cccc(C2CN(C(=O)[C@@H]3CC[C@@H]4C[C@@H]5C[C@@H]5C[C@H](NC(=O)c5cc6cc(C(F)(F)P(=O)(O)O)ccc6s5)C(=O)N43)C2)n1` [Compound 60, (difluoro(2-(((3S,6S,7aR,8aS,9aR)-3-(3-(6-methylpyridin-2-yl)azetidine-1-carbonyl)-5-oxodecahydro-1H-cyclopropa[d]pyrrolo[1,2-a]azocin-6-yl)carbamoyl)benzo[b]thiophen-5-yl)methyl)phosphonic acid] the same measures were less than 100 nM and 300 to 3000 nM.
For `O=C(N[C@H]1C[C@@H]2C[C@@H]2C[C@H]2CC[C@@H](C(=O)N3CC(c4cncnc4)C3)N2C1=O)c1cc2cc(C(F)(F)P(=O)(O)O)ccc2s1` [Compound 61, (difluoro(2-(((3S,6S,7aS,8aR,9aR)-5-oxo-3-(3-(pyrimidin-5-yl)azetidine-1-carbonyl)decahydro-1H-cyclopropa[d]pyrrolo[1,2-a]azocin-6-yl)carbamoyl)benzo[b]thiophen-5-yl)methyl)phosphonic acid] the same measures were less than 100 nM and 3000 to 30000 nM.
On to `N#Cc1ccc(C2(F)CN(C(=O)[C@@H]3CC[C@@H]4C[C@H]5C[C@H]5C[C@H](NC(=O)c5cc6cc(C(F)(F)P(=O)(O)O)ccc6s5)C(=O)N43)C2)cc1` [Compound 62, ((2-(((3S,6S,7aS,8aR,9aR)-3-(3-(4-cyanophenyl)-3-fluoroazetidine-1-carbonyl)-5-oxodecahydro-1H-cyclopropa[d]pyrrolo[1,2-a]azocin-6-yl)carbamoyl)benzo[b]thiophen-5-yl)difluoromethyl)phosphonic acid], for which the IC50 is less than 100 nM in assay [1] and 300 to 3000 nM in assay [2].
The corresponding values for `O=C(N[C@H]1C[C@H]2C[C@H]2C[C@H]2CC[C@@H](C(=O)NC3CN(C(=O)CCC(F)(F)F)C3)N2C1=O)c1cc2cc(C(F)(F)P(=O)(O)O)ccc2s1` [Compound 63, (difluoro(2-(((3S,6S,7aR,8aS,9aR)-5-oxo-3-((1-(4,4,4-trifluorobutanoyl)azetidin-3-yl)carbamoyl)decahydro-1H-cyclopropa[d]pyrrolo[1,2-a]azocin-6-yl)carbamoyl)benzo[b]thiophen-5-yl)methyl)phosphonic acid] are less than 100 nM and 3000 to 30000 nM.
For `O=C(N[C@H]1C[C@@H]2C[C@@H]2C[C@H]2CC[C@@H](C(=O)N3CC(F)(c4ccccc4)C3)N2C1=O)c1cc2cc(C(F)(F)P(=O)(O)O)ccc2s1` [Compound 64, (difluoro(2-(((3S,6S,7aS,8aR,9aR)-3-(3-fluoro-3-phenylazetidine-1-carbonyl)-5-oxodecahydro-1H-cyclopropa[d]pyrrolo[1,2-a]azocin-6-yl)carbamoyl)benzo[b]thiophen-5-yl)methyl)phosphonic acid] the same measures were less than 100 nM and 300 to 3000 nM.
